According to article PMC7073886, “Structure–Bioactivity Relationships of Lapatinib Derived Analogs against Schistosoma mansoni” (ACS Medicinal Chemistry Letters, 2020):

How the values were obtained:
adult S. mansoni = test: Phenotypic screen of adult S. mansoni worms, severity scores and descriptors; type: cell-based, Schistosoma mansoni; conditions: for Descriptors (10 µM) 1 h / Severity Scores (10 μM) 1 h / Descriptors (10 µM) 5 h / Severity Scores (10 μM) 5 h / Descriptors (10 µM) 24 h / Severity Scores (10 μM) 24 h / Descriptors (10 µM) 48 h / Severity Scores (10 μM) 48 h: adult S. mansoni; for Descriptors (10 µM) 1 h / Descriptors (10 µM) 5 h / Descriptors (10 µM) 24 h / Descriptors (10 µM) 48 h: phenotypic descriptors; for Severity Scores (10 μM) 1 h / Severity Scores (10 μM) 5 h / Severity Scores (10 μM) 24 h / Severity Scores (10 μM) 48 h: scale 0 (no activity) to 4 (maximal activity); for bioactivity against adult S. mansoni: adult schistosomes; for Severity Scores (10 μM) 1 h / Severity Scores (10 μM) 5 h / Severity Scores (10 μM) 24 h / Severity Scores (10 μM) 48 h / bioactivity against adult S. mansoni: 10 μM
Excerpt: Because the schistosome parasite can present multiple and dynamic phenotypic responses to chemical insult,[16] we employ a constrained nomenclature of descriptors to describe the changes in the parasite as a function of time and concentration (e.g., motility, density, and shape; and in the case of the adult parasite, an inability to adhere to the bottom of the assay dish). These descriptors are converted into severity scores on a scale of 0 (green)–4 (severest/red) that allow for partially quantitative comparisons of compound effects.[1]−[19] […] The descriptors themselves and their respective scores are detailed in the Supporting Information, Table S1. Severity score data are presented in the results (with the corresponding descriptors detailed in the Supporting Information, Tables S2–S8), and eight new analogs developed and synthesized in support of this effort are described. Finally, absorption, distribution, metabolism and excretion (ADME) data of all compounds presented in this work are reported in the Supporting Information, Table S15.
Table S1. Descriptors and associated severity scores used for S. mansoni adults.
R (rounded or shape altered 1
On sides (adults unable to 1
Shrunk (adults are shorter 1
surface (tegument) of adults)
dfailed to create analytical method
Maintenance of the Schistosoma mansoni life cycle (NMRI isolate), the preparation of adult worms (≥ 42-
days-old), and their co-incubation with test compounds were as described.7-9 Phenotypic responses were
visually recorded using a constrained nomenclature and converted to severity scores on a scale from zero
(no activity) to 4 (maximal activity).8, 9 Use of hamsters for maintaining the S. mansoni life-cycle was
approved by the Institutional Animal Care and Use Committee of the University of California San Diego.
The human myelomonocytic cell line THP -1 was grown at 37 °C and 5% CO2 in RPMI-1640 supplemented
with 10% iFBS, 2 mM glutamate, 100 U/mL penicillin and […] streptomycin.
Drug toxicity to HepG2 cells .10 HepG2 cells line were obtained from the American Type Culture
Collection and cultured in Minimal Essential Medium (MEM) supplemented with 0.19% sodium
bicarbonate, 10% Fetal Bovine Serum, 2 mM L -glutamine, 0.1 mM MEM non-essential amino, 0.009
mg/mL insulin, 1.76 mg/mL bovine serum albumin. The viability of the cells was measured using the MTT
(thiazolyl blue reduction) method. Briefly, ninety -six-well plates were seeded with 2.5 × 10^4 cells/well in
170 ml of culture medium and incubated overnight in 5% CO 2 at 37 °C. Cells were exposed to different
experimental compounds in DMSO. After 48 hours incubation, the viability of the cells was assessed using
MTT (thiazolyl blue reduction) as a dose response assay (11 two -fold serial dilutions) to obtain a calculated
IC50 determination. 4-Azaindolo[2,1-b]quinazoline-6,12-dione is used as a toxicity positive control and
each assay plate includes the following 3 additional controls: a) background control: no cells and no drug
was added, b) target control: cells added but no drugs, and c) DMSO control: same as the target control
except the culture media contains 0.6% DMSO. Absorbance was determined in all wells using a Perkin
Elmer, Ensight plate reader. The fifty percent inhibitory concentrations (IC50’s) were determined using
GraphPad Prism nonlinear regr ession (sigmoidal dose -response, variable slope) equation .
ADME Experiment Protocols
Aqueous pH 7.4 Solubility. Compounds were dried down from 10 mM DMSO solutions using centrifugal
evaporation technique. Phosphate buffer (0.1 M pH 7.4) was added and StirStix were inserted in the glass
vials, with shaking then performed at a constant temperature of 25 °C for 20 -24 h. This step was followed
by double centrifugation with a tip wash in between, to ensure that no residues of the dried compounds
interfere. The solutions were diluted before analysis and quantification using LC/MS/MS was performed.

[1] = Log D7.4 shake-flask octanol-water; type: physicochemical; conditions: pH 7.4
Method: Log D7.4. Shake-flask octanol-water distribution coefficient was determined at pH 7.4 (Log D7.4). The aqueous solution used is 10 mM sodium phosphate pH 7.4 buffer. The method has been validated for Log D7.4 ranging from -2 to 5.0.
Human Plasma Protein Binding (PPB). PPB was determined using equilibrium dialysis (RED device) to separate free from bound compound. The amount of compound in plasma (10 µM initial concentration) and in dialysis buffer (pH 7.4 phosphate buffer) was measured by LC-MS/MS after equilibration at 37 °C in a dialysis chamber. The fraction unbound (fu) is reported.
Human Liver Microsomal Clint. In vitro intrinsic clearance was determined from human liver microsomes using a standard approach.11 Following incubation and preparation, the samples were analyzed using […]
Rat Hepatocyte Clint. In vitro intrinsic clearance was determined from rat hepatocytes using a standard approach.11 Following incubation and preparation, the samples were analyzed using LC/MS/MS. Refined […]
Calculated LogP and LogD values. Both LogP and LogD predictions are based on a modified version of the method12 where the predicted partition coefficients are composed of the molecules’ atomic increments.
General Chemistry. All starting materials were commercially obtained and were used without further purification, unless specified. Reaction solvents were purified by passage through alumina columns on a purification system manufactured by Innovative Technology (Newburyport, MA). NMR spectra were obtained on Varian NMR systems, operating at 400 or 500 MHz for 1 H acquisitions. LCMS analysis was performed using a Waters AllianceHT e2795 reverse phase HPLC (Waters SunFire C18 4.6 × 50 mm, 3.5 μm column), with a Waters 2996 photodiode array detector scanning from 210 nm to 600 nm, and Waters Micromass ZQ detector (electrospray ionization). Where required, final compounds were purified by preparative reverse phase HPLC (columns Waters Symmetry RP8 30 × 50 mm, 5 μm column, or OBD RP18 30 × 50 mm, 5 μm), with a single wavelength UV−visible detector and Waters Micromass ZQ (electrospray ionization).

Rat hepatocyte Clint = type: in vitro ADME; conditions: rat hepatocytes, intrinsic clearance; read-out: RH CLint

SMILES | Descriptors (10 µM) 1 h (adult S. mansoni) | Severity Scores (10 μM) 1 h (adult S. mansoni) | Descriptors (10 µM) 5 h (adult S. mansoni) | Severity Scores (10 μM) 5 h (adult S. mansoni) | Descriptors (10 µM) 24 h (adult S. mansoni) | Severity Scores (10 μM) 24 h (adult S. mansoni) | Descriptors (10 µM) 48 h (adult S. mansoni) | Severity Scores (10 μM) 48 h (adult S. mansoni) | bioactivity against adult S. mansoni (adult S. mansoni) | logD [1] | hepatocyte CLint (Rat hepatocyte Clint) [µL/min/1e6 cells]
O=C(O)CN1CCN(c2ncc(-c3ccc4c(Nc5cnccn5)ccnc4c3)cn2)CC1 [3b] | none | 0 | none | 0 | none | 0 | none | 0 | no bioactivity | 0.7 | 8.9
CN1C[C@H]2C[C@@H]1CN2c1ncc(-c2ccc3c(Nc4cnccn4)ccnc3c2)cn1 [4a] | none | 0 | none | 0 |  | 1 |  | 1 | minimal bioactivity was observed after 48 h | 2.2 | 17
CCCN1CCN(c2ncc(-c3ccc4c(Nc5cnccn5)ccnc4c3)cn2)CC1 [4c] | none | 0 |  | 1 | On sides, S | 2 |  | 4 | activity after 5 h | 4.2 | 45
CN1CCCN(c2ncc(-c3ccc4c(Nc5cnccn5)ccnc4c3)cn2)CC1 [4d] | none | 0 | none | 0 | none | 0 | none | 0 | complete loss in activity | 2.6 | 54
CCN1CCCN(c2ncc(-c3ccc4c(Nc5cnccn5)ccnc4c3)cn2)CC1 [4e] | none | 0 | none | 0 | none | 0 | none | 0 |  | 2.7 | 30
Cc1cnc(Nc2ccnc3cc(-c4cnc(N5CCCN(C)CC5)nc4)ccc23)cn1 [5b] | none | 0 | none | 0 | Dark, S, on sides | 3 |  | 4 | bioactivity recorded after 24 h | 2.9 | 24
COc1ccc(NC(=O)c2ccc(-c3cnc(N4CCCN(C)CC4)nc3)cc2O)cc1Cl [7b] | none | 0 |  | 1 |  | 2 |  | 4 | minimal bioactivity after 5 h and potent activity after 48 h | 3.4 | 120
Cc1c(-c2cnc(N3CCN(C)CC3)nc2)ccc2c(Nc3cnccn3)ccnc12 [9a] | none | 0 | none | 0 |  | 1 |  | 2 | moderate potency after 24 h | 3.3 | 52
CN1CCN(c2ncc(-c3ccc4c(NC5CCOCC5)ccnc4c3)cn2)CC1 [S1d] | none | 0 | none | 0 | none | 0 | none | 0 | no significant bioactivity | 1.7 | 
CN1CCN(c2ncc(-c3ccc4c(Nc5cnccn5)ccnc4c3)cn2)CC1 [compound 3] | none | 0 | none | 0 | none | 0 | none | 0 | no bioactivity |  | 
